Results as given in patent US7999147B2, “Reduction of odors in absorbent articles” (First Quality Products, Inc., priority 2004, dated 2011).
Several values for one entry are separate records, joined by “and”; a condition that tells them apart may be missing. Equal values may be shown once.

Columns and labels:
[1] = system: ammonia; assay: Ammonia concentration from urine in absorbent structures sprayed with additive solution (gas dosimeter tubes); parameters: species or system human; conditions: 37° C.
[2] = Water solubility of the additive; assay type: physicochemical
Experimental: Four absorbent structures are made according to Example 4 except onto three structures, 4.5 ml of an aqueous solution containing 1% M-Quat Dimer 18 is sprayed. To dissolve the additive in water, the temperature needed to be raised to about 45-60° C. M-Quat Dimer 18 is the tradename for 2-hydroxypropylene-bis-1,3-(dimethylstearylammonium chloride). […] This chemical is manufactured by BASF Corporation.

[3] = system: ammonia; assay: Ammonia concentration from urine in absorbent structures containing additive-treated SAP (gas dosimeter tubes); parameters: species or system human; conditions: 1.5 g SAP treated with FORESTALL (0.135 g per 13.5 g SAP) + 4.5 g fluff pulp, 37° C., donors X, Y
Experimental: The following is a detailed description of the test method to measure ammonia concentrations. A series of absorbent structures are prepared according to the following. The base absorbent structure is fluff pulp or a combination of fluff and SAP. Then, for example, an aqueous solution is prepared containing a known quantity of a potential treatment for ammonia malodor. An equal quantity of the solution is sprayed onto all but one of the series of absorbent structures. The spraying is applied as uniformly as possible. One absorbent structure is sprayed with an equal volume of water and is the control. All absorbent structures are left out several hours to dry. Each of the absorbent structures is then transferred to Nalgene® Brand 125-ml, narrow-mouth polycarbonate Erlenmeyer flasks. […]
Straughan® Gastec® ammonia gas dosimeter tubes, grade 3D, are broken off and thereby opened at one end. […] Donors collect a suitable quantity of fresh urine specimen in disposable collection cups marked with volume indications. […]
The flasks are then placed into a water bath set at 37° C. […] Based on discrete markings on the detector tube, the time-weighted average concentration of ammonia measured in parts per million-hour are read from the scale and recorded. […] Readings of ammonia concentrations are read up to 72 hours time or less if any of the concentrations exceed the maximum limit of the detection tube's range. […]

[4] = 4.5 ml of 1% M-Quat Dimer 18 sprayed on fluff pulp + SAP, urine, donors X, Y

## ethylbis(hydroxyethyl)tallowalkyl ammonium ethyl sulfate
[1]; 4.5 ml of 1% ethylbis(hydroxyethyl)tallowalkyl ammonium ethyl sulfate sprayed on fluff pulp + SAP, urine, donors Z, X
  Ammonia Concentration ppm-hour 8 hour reading: 0 ppm-hour

## CCCCCCCCCCCCCCCCCC[N+](C)(C)CC(O)C[N+](C)(C)CCCCCCCCCCCCCCCCCC.[Cl-].[Cl-] [M-Quat Dimer 18, 2-hydroxypropylene-bis-1,3-(dimethylstearylammonium chloride)]
[2]; 1% aqueous solution
  Temperature needed to dissolve the additive in water: 45-60 °C
[2]; 37° C.
  Water solubility at 37° C.: not water soluble at 37 °C
[1]; [4]
  Ammonia Concentration ppm-hour 8 hour reading: 0 ppm-hour
  Ammonia Concentration ppm-hour 72 hour reading: 250 ppm-hour and 470 ppm-hour and 280 ppm-hour and 400 ppm-hour and 425 ppm-hour
[1]; 4.5 ml of 1% M-Quat Dimer 18 sprayed on fluff pulp + SAP, urine, donors X, Y, 32 hour
  Ammonia Concentration ppm-hour 32 hour reading: 12 ppm-hour and 20 ppm-hour and 23 ppm-hour
[1]; 4.5 ml of 1% M-Quat Dimer 18 sprayed on fluff pulp + SAP, urine, donors X, Y, 48 hour
  Ammonia Concentration ppm-hour 48 hour reading: 25 ppm-hour and 30 ppm-hour and 50 ppm-hour

## 4-ethyl-4-soya morpholinium ethyl sulfate [FORESTALL]
[3]
  Ammonia Concentration ppm-hour 32 hour reading: 25 ppm-hour and 30 ppm-hour
[1]; 4.5 ml of 1% FORESTALL sprayed on 4.5 g fluff pulp + 1.5 g SAP, fresh urine, donors X, Y, Z
  Ammonia Concentration ppm-hour 8 hour reading: 0 ppm-hour

## hydrogenated tallowalkyl(2-ethylhexyl)dimethylammonium methyl sulfate [ARQUAD HTL8-MS]
[1]; 4.5 ml of 1% ARQUAD HTL8-MS sprayed on fluff pulp + SAP, urine, donors X, Y
  Ammonia Concentration ppm-hour 8 hour reading: 0 ppm-hour

## 1-propanaminium, 3-amino-N-ethyl-N,N-dimethyl-N-soya acyl derivative, ethyl sulfate
[1]; 4.5 ml of 1% 1-propanaminium soya acyl derivative ethyl sulfate sprayed on fluff pulp + SAP, urine, donor Y, 56 hour
  Ammonia Concentration ppm-hour 56 hour reading: 25 ppm-hour
[1]; 4.5 ml of 1% 1-propanaminium soya acyl derivative ethyl sulfate sprayed on fluff pulp + SAP, urine, donor Z
  Ammonia Concentration ppm-hour 72 hour reading: 0 ppm-hour
[1]; 4.5 ml of 1% 1-propanaminium soya acyl derivative ethyl sulfate sprayed on fluff pulp + SAP, urine, donors Y, Z
  Ammonia Concentration ppm-hour 8 hour reading: 0 ppm-hour
[1]; 4.5 ml of 1% 1-propanaminium soya acyl derivative ethyl sulfate sprayed on fluff pulp + SAP, urine, donors Y, Z, 24 hour
  Ammonia Concentration ppm-hour 24 hour reading: 0 ppm-hour
